Laboratory results: PubChem BioAssay (NCI)
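Dose response: 5 concentrations. Exposure: 48 h. Format: 96-well plates. Endpoint: linear interpolation; highest concentration if not reached. TGI marks complete inhibition of growth.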

Key:
Assay in all cases: NCI tumour cell line growth inhibition, 48 h
786-0 renal = test system: 786-0 renal
A498 renal = test system: A498 renal
A549 NSCLC = test system: A549 NSCLC
ACHN renal = test system: ACHN renal
BT-549 breast = test system: BT-549 breast
CAKI-1 renal = test system: CAKI-1 renal
CCRF-CEM leukemia = test system: CCRF-CEM leukemia
COLO 205 colon = test system: COLO 205 colon
DU-145 prostate = test system: DU-145 prostate
EKVX NSCLC = test system: EKVX NSCLC
HCC-2998 colon = test system: HCC-2998 colon
HCT-116 colon = test system: HCT-116 colon
HCT-15 colon = test system: HCT-15 colon
HL-60(TB) leukemia = test system: HL-60(TB) leukemia
HOP-62 NSCLC = test system: HOP-62 NSCLC
HOP-92 NSCLC = test system: HOP-92 NSCLC
HS 578T breast = test system: HS 578T breast
HT29 colon = test system: HT29 colon
IGROV1 ovarian = test system: IGROV1 ovarian
K-562 leukemia = test system: K-562 leukemia
KM12 colon = test system: KM12 colon
LOX IMVI melanoma = test system: LOX IMVI melanoma
M14 melanoma = test system: M14 melanoma
MALME-3M melanoma = test system: MALME-3M melanoma
MCF7 breast = test system: MCF7 breast
MDA-MB-231 breast = test system: MDA-MB-231 breast
MDA-MB-435 = test system: MDA-MB-435
MDA-N = test system: MDA-N
MOLT-4 leukemia = test system: MOLT-4 leukemia
NCI-H226 lung = test system: NCI-H226 lung
NCI-H23 lung = test system: NCI-H23 lung
NCI-H460 lung = test system: NCI-H460 lung
NCI-H522 lung = test system: NCI-H522 lung
NCI/ADR-RES ovarian = test system: NCI/ADR-RES ovarian
OVCAR-3 ovarian = test system: OVCAR-3 ovarian
OVCAR-4 ovarian = test system: OVCAR-4 ovarian
OVCAR-5 ovarian = test system: OVCAR-5 ovarian
OVCAR-8 ovarian = test system: OVCAR-8 ovarian
PC-3 prostate = test system: PC-3 prostate
RPMI-8226 leukemia = test system: RPMI-8226 leukemia
RXF 393 renal = test system: RXF 393 renal
SF-268 CNS = test system: SF-268 CNS
SF-295 CNS = test system: SF-295 CNS
SF-539 CNS = test system: SF-539 CNS
SK-MEL-2 melanoma = test system: SK-MEL-2 melanoma
SK-MEL-28 melanoma = test system: SK-MEL-28 melanoma
SK-MEL-5 melanoma = test system: SK-MEL-5 melanoma
SK-OV-3 ovarian = test system: SK-OV-3 ovarian
SN12C renal = test system: SN12C renal
SNB-19 CNS = test system: SNB-19 CNS
SNB-75 CNS = test system: SNB-75 CNS
SR leukemia = test system: SR leukemia
SW-620 colon = test system: SW-620 colon
T-47D breast = test system: T-47D breast
TK-10 renal = test system: TK-10 renal
U251 CNS = test system: U251 CNS
UACC-257 melanoma = test system: UACC-257 melanoma
UACC-62 melanoma = test system: UACC-62 melanoma
UO-31 renal = test system: UO-31 renal

Measured: TGI

S=C1N=C2C(=N1)n1c3c(c4ccccc41)CCCC23 (stereo not drawn)
63.1 µM: MCF7 breast
72.6 µM: SN12C renal
35.6 µM: LOX IMVI melanoma
32.9 µM: 786-0 renal
97.5 µM: RPMI-8226 leukemia
63.3 µM: NCI-H522 lung
> 100 µM: all other assays above

COC(=O)C(Cc1ccc2c(c1)CCCC2)Cc1cc2c(cc1C(O)OC)CCC2 (stereo not drawn)
65.1 µM: MCF7 breast
56.9 µM: HL-60(TB) leukemia
67.3 µM: RXF 393 renal
90.4 µM: UACC-257 melanoma
> 100 µM: all other assays above
